Test results as given in US20220227789A1, “NOVEL INDOLIZINE-2-CARBOXAMIDES ACTIVE AGAINST THE HEPATITIS B VIRUS (HBV)” (AiCuris GmbH & Co. KG, priority 2019, published 2022).

Each compound was assayed against T1, HBV core protein (C-terminal truncated, 149 aa assembly domain) (Hepatitis B virus genotype D subtype adw, UniProt P03147, C107A/C48A/C61A) (assay: Biochemical capsid assembly assay (fluorescence quenching)). Settings: not given.
T1 construct: The C-terminal truncated core protein containing 149 amino acids of the N-terminal assembly domain; made in house; host or cells: E. coli BL21 (DE3) Rosetta2, plasmid pET21b
T1 sequence (P03147 1-150, looked up, stated change not applied): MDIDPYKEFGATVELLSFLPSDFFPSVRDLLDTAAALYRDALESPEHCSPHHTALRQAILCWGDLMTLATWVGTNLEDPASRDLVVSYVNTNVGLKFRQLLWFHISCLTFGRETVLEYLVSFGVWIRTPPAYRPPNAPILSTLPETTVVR
Protocol: Biochemical Capsid Assembly Assay
The screening for assembly effector activity was done based on a fluorescence quenching assay published by Zlotnick et al. (2007). The C-terminal truncated core protein containing 149 amino acids of the N-terminal assembly domain fused to a unique cysteine residue at position 150 and was expressed in E. coli using the pET expression system (Merck Chemicals, Darmstadt). Purification of core dimer protein was performed using a sequence of size exclusion chromatography steps. In brief, the cell pellet from 1 L BL21 (DE3) Rosetta2 culture expressing the coding sequence of core protein cloned NdeI/XhoI into expression plasmid pET21b was treated for 1 h on ice with a native lysis buffer (Qproteome Bacterial Protein Prep Kit; Qiagen, Hilden). After a centrifugation step the supernatant was precipitated during 2 h stirring on ice with 0.23 g/ml of solid ammonium sulfate. Following further centrifugation the resulting pellet was resolved in buffer A (100 mM Tris, pH 7.5; 100 mM NaCl; 2 mM DTT) and was subsequently loaded onto a buffer A equilibrated CaptoCore 700 column (GE HealthCare, Frankfurt). The column flow through containing the assembled HBV capsid was dialyzed against buffer N (50 mM NaHCO3 pH 9.6; 5 mM DTT) before urea was added to a final concentration of 3M to dissociate the capsid into core dimers for 1.5 h on ice. The protein solution was then loaded onto a 1 L Sephacryl 5300 column. After elution with buffer N core dimer containing fractions were identified by SDS-PAGE and subsequently pooled and dialyzed against 50 mM HEPES pH 7.5; 5 mM DTT. To improve the assembly capacity of the purified core dimers a second round of assembly and disassembly starting with the addition of 5 M NaCl and including the size exclusion chromatography steps described above was performed. From the last chromatography step core dimer containing fractions were pooled and stored in aliquots at concentrations between 1.5 to 2.0 mg/ml at −80° C.
Immediately before labelling the core protein was reduced by adding freshly prepared DTT in a final concentration of 20 mM. After […] on ice storage buffer and DTT was removed using a Sephadex G-25 column (GE HealthCare, Frankfurt) and 50 mM HEPES, pH 7.5. For labelling 1.6 mg/ml core protein was incubated at 4° C. and darkness overnight with BODIPY-FL maleimide (Invitrogen, Karlsruhe) in a final concentration of 1 mM. After labelling the free dye was removed by an additional desalting step using a Sephadex G-25 column. Labelled core dimers were stored in aliquots at 4° C. In the dimeric state the fluorescence signal of the labelled core protein is high and is quenched during the assembly of the core dimers to high molecular capsid structures. The screening assay was performed in black 384 well microtiter plates in a total assay volume of 10 μl using 50 mM HEPES pH 7.5 and 1.0 to 2.0 μM labelled core protein. Each screening compound was added in 8 different concentrations using a 0.5 log-unit serial dilution starting at a final concentration of 100 μM, 31.6 μM or 10 μM, In any case the DMSO concentration over the entire microtiter plate was 0.5%. The assembly reaction was started by the injection of NaCl to a final concentration of […] which induces the assembly process to approximately 25% of the maximal quenched signal. 6 min after starting the reaction the fluorescence signal was measured using a Clariostar plate reader (BMG Labtech, Ortenberg) with an excitation of 477 nm and an emission of 525 nm. As 100% and 0% assembly control HEPES buffer containing 2.5 M and 0 M NaCl was used. Experiments were performed thrice in triplicates. EC50 values were calculated by non-linear regression analysis using the Graph Pad Prism 6 software (GraphPad Software, La Jolla, USA).

| SMILES | IC50 [µM] |
| --- | --- |
| O=C(c1cc2ccccn2c1)N1CCc2onc(-c3cscn3)c2C1 [Example 36, 2-[3-(1,3-thiazol-4-yl)-4H,5H,6H,7H-[1,2]oxazolo[4,5-c]pyridine-5-carbonyl]indolizine] | < 5 |

Same assay, conditions: BODIPY-FL labelled core protein, assembly started with NaCl, read after 6 min; read-out: Assembly Activity

| SMILES | IC50 [µM] |
| --- | --- |
| O=C(c1cc2ccccn2c1)N1CCc2[nH]nc(-n3ccnn3)c2C1 [Example 28, 2-[3-(1H-1,2,3-triazol-1-yl)-1H,4H,5H,6H,7H-pyrazolo[4,3-c]pyridine-5-carbonyl]indolizine] | < 100 |
| O=C(NCC1CCCO1)c1[nH]nc2c1CN(C(=O)c1cc3ccccn3c1)CC2 (stereo not shown) [Example 29, 5-(indolizine-2-carbonyl)-N-[(oxolan-2-yl)methyl]-2H,4H,5H,6H,7H-pyrazolo[4,3-c]pyridine-3-carboxamide] | < 100 |
| O=C(NCC1CCCOC1)c1[nH]nc2c1CN(C(=O)c1cc3ccccn3c1)CC2 (stereo not shown) [Example 30, 5-(indolizine-2-carbonyl)-N-[(oxan-3-yl)methyl]-2H,4H,5H,6H,7H-pyrazolo[4,3-c]pyridine-3-carboxamide] | < 100 |
| O=C(c1cc2ccccn2c1)N1CCc2[nH]nc(-c3ccon3)c2C1 [Example 31, 2-[3-(1,2-oxazol-3-yl)-1H,4H,5H,6H,7H-pyrazolo[4,3-c]pyridine-5-carbonyl]indolizine] | < 5 |
| O=C(NC1(C(F)(F)F)CC1)c1[nH]nc2c1CN(C(=O)c1cc3ccccn3c1)CC2 [Example 33, 5-(indolizine-2-carbonyl)-N-[1-(trifluoromethyl)cyclopropyl]-2H,4H,5H,6H,7H-pyrazolo[4,3-c]pyridine-3-carboxamide] | < 100 |
| O=C(c1cc2ccccn2c1)N1CCc2noc(-c3cscn3)c2C1 [Example 34, 2-[3-(1,3-thiazol-4-yl)-4H,5H,6H,7H-[1,2]oxazolo[4,3-c]pyridine-5-carbonyl]indolizine] | < 5 |
| CC(C)(NC(=O)c1[nH]nc2c1CN(C(=O)c1cc3ccccn3c1)CC2)C(F)(F)F [Example 35, 5-(indolizine-2-carbonyl)-N-(1,1,1-trifluoro-2-methylpropan-2-yl)-2H,4H,5H,6H,7H-pyrazolo[4,3-c]pyridine-3-carboxamide] | < 100 |
| O=C(c1cc2ccccn2c1)N1CCc2[nH]nc(-c3cscn3)c2C1 [Example 37, 2-[3-(1,3-thiazol-4-yl)-1H,4H,5H,6H,7H-pyrazolo[4,3-c]pyridine-5-carbonyl]indolizine] | < 5 |
| CC(NC(=O)c1[nH]nc2c1CN(C(=O)c1cc3ccccn3c1)CC2)C1COC1 (stereo not shown) [Example 41, 5-(indolizine-2-carbonyl)-N-[1-(oxetan-3-yl)ethyl]-2H,4H,5H,6H,7H-pyrazolo[4,3-c]pyridine-3-carboxamide] | < 100 |
| O=C(c1cc2ccccn2c1)N1CCn2ncc(-c3cscn3)c2C1 [Example 43, 2-[3-(1,3-thiazol-4-yl)-4H,5H,6H,7H-pyrazolo[1,5-a]pyrazine-5-carbonyl]indolizine] | < 5 |
| CC1Cc2[nH]nc(-c3cscn3)c2CN1C(=O)c1cc2c(F)cc(F)cn2c1 (stereo not shown) [Example 44, 6,8-difluoro-2-[6-methyl-3-(1,3-thiazol-4-yl)-1H,4H,5H,6H,7H-pyrazolo[4,3-c]pyridine-5-carbonyl]indolizine] | < 5 |
| C[C@H](NC(=O)c1[nH]nc2c1CN(C(=O)c1cc3ccccn3c1)CC2)C(F)(F)F [Example 45, 5-(indolizine-2-carbonyl)-N-[(2S)-1,1,1-trifluoropropan-2-yl]-2H,4H,5H,6H,7H-pyrazolo[4,3-c]pyridine-3-carboxamide] | < 100 |
| C[C@@H](NC(=O)c1[nH]nc2c1CN(C(=O)c1cc3ccccn3c1)CC2)C(F)(F)F [Example 46, 5-(indolizine-2-carbonyl)-N-[(2R)-1,1,1-trifluoropropan-2-yl]-2H,4H,5H,6H,7H-pyrazolo[4,3-c]pyridine-3-carboxamide] | < 100 |
| CC1Cc2n[nH]c(C(=O)NC(C)C(F)(F)F)c2CN1C(=O)c1cc2c(Cl)cccn2c1 (stereo not shown) [Example 47, 5-(8-chloroindolizine-2-carbonyl)-6-methyl-N-(1,1,1-trifluoropropan-2-yl)-2H,4H,5H,6H,7H-pyrazolo[4,3-c]pyridine-3-carboxamide] | < 100 |
| CC1Cc2n[nH]c(C(=O)NC(C)C(F)(F)F)c2CN1C(=O)c1cc2ccccn2c1 (stereo not shown) [Example 48, 5-(indolizine-2-carbonyl)-6-methyl-N-(1,1,1-trifluoropropan-2-yl)-2H,4H,5H,6H,7H-pyrazolo[4,3-c]pyridine-3-carboxamide] | < 100 |

The compounds below were run on HBV (assay: HBV replication assay: HBV DNA from the supernatants of HepAD38 cells). Settings: Hepatitis B virus, 144 h, HBV DNA in supernatant by qPCR at day 6, read-out: Cell Activity.
Format: cell-based
Protocol: Determination of HBV DNA from the Supernatants of HepAD38 Cells
The anti-HBV activity was analysed in the stable transfected cell line HepAD38, which has been described to secrete high levels of HBV virion particles (Ladner et al., 1997). In brief, HepAD38 cells were cultured at 37° C. at 5% CO2 and 95% humidity in 200 μl maintenance medium, which was Dulbecco's modified Eagle's medium/Nutrient Mixture F-12 (Gibco, Karlsruhe), 10% fetal bovine serum (PAN Biotech Aidenbach) supplemented with 50 μg/ml penicillin/streptomycin (Gibco, Karlsruhe), 2 mM L-glutamine (PAN Biotech, Aidenbach), 400 μg/ml G418 (AppliChem, Darmstadt) and 0.3 μg/ml tetracycline. Cells were subcultured once a week in a 1:5 ratio, but were usually not passaged more than ten times. For the assay 60,000 cells were seeded in maintenance medium without any tetracycline into each well of a 96-well plate and treated with serial half-log dilutions of test compound. To minimize edge effects the outer 36 wells of the plate were not used but were filled with assay medium. On each assay plate six wells for the virus control (untreated HepAD38 cells) and six wells for the cell control (HepAD38 cells treated with 0.3 μg/ml tetracycline) were allocated, respectively. In addition, one plate set with reference inhibitors like BAY 41-4109, entecavir, and lamivudine instead of screening compounds were prepared in each experiment. In general, experiments were performed thrice in triplicates. At day 6 HBV DNA from 100 μl filtrated cell culture supernatant (AcroPrep Advance 96 Filter Plate, […] Supor membran, PALL GmbH, Dreieich) was automatically purified on the MagNa Pure LC instrument using the MagNA Pure 96 DNA and Viral NA Small Volume Kit (Roche Diagnostics, Mannheim) according to the instructions of the manufacturer. EC50 values were calculated from relative copy numbers of HBV DNA In brief, 5 μl of the 100 μl eluate containing HBV DNA were subjected to PCR LC480 Probes Master Kit (Roche) together with 1 μM antisense primer […], 0.5 μM sense primer […], 0.3 μM hybprobes […]-FL and LC640-[…]-PH (TIBMolBiol, Berlin) to a final volume of […]. The PCR was performed on the Light Cycler 480 real time system (Roche Diagnostics, Mannheim) using the following protocol: Pre-incubation for 1 min at 95° C., amplification: 40 cycles×(10 sec at 95° C., 50 sec at 60° C., 1 sec at 70° C.), cooling for 10 sec at 40° C. Viral load was quantitated against known standards using HBV plasmid DNA of pCH-9/3091 (Nassal et al., 1990, Cell 63: 1357-1363) and the LightCycler 480 SW 1.5 software (Roche Diagnostics, Mannheim) and EC50 values were calculated using non-linear regression with GraphPad Prism 6 (GraphPad Software Inc., La Jolla, USA).

| SMILES | EC50 [µM] |
| --- | --- |
| O=C(c1cc2c(Cl)cccn2c1)N1CCc2n[nH]c(C(=O)N3CC(F)(F)CC34CC4)c2C1 [Example 1, 8-chloro-2-(3-{6,6-difluoro-4-azaspiro[2.4]heptane-4-carbonyl}-2H,4H,5H,6H,7H-pyrazolo[4,3-c]pyridine-5-carbonyl)indolizine] | 1 to 10 |
| O=C(c1cc2c(F)cc(F)cn2c1)N1CCc2n[nH]c(C(=O)N3CC(F)(F)CC34CC4)c2C1 [Example 2, 6,8-difluoro-2-(3-{6,6-difluoro-4-azaspiro[2.4]heptane-4-carbonyl}-2H,4H,5H,6H,7H-pyrazolo[4,3-c]pyridine-5-carbonyl)indolizine] | 1 to 10 |
| CC1Cc2[nH]nc(-c3cscn3)c2CN1C(=O)c1cn2ccccc2c1Br (stereo not shown) [Example 11, 1-bromo-2-[6-methyl-3-(1,3-thiazol-4-yl)-1H,4H,5H,6H,7H-pyrazolo[4,3-c]pyridine-5-carbonyl]indolizine] | 1 to 10 |
